{"source": "paper PMC10319809", "about": "“Chronic UCN2 treatment desensitizes CRHR2 and improves insulin sensitivity” (Nature Communications, 2023)", "key": {"[1]": {"system": "male mice", "assay": "Glucose tolerance test (oGTT / IPGTT), blood glucose", "type": "in vivo, mouse", "experimental": "(§1) All metabolic tests were performed using standard protocols on male littermates (aged: 10–14 weeks). For glucose tolerance tests (GTTs), animals were fasted for 8 h with ad libitum access to water. Fasting glucose measurements were taken before […] oral glucose dose. Blood glucose measurements were taken via tail nick using the AlphaTRAK 2 Glucose Monitoring System (Zoetis, Parsippany-Troy Hills, NJ) at 10, 30, 60, and 120 min after dose. Blood was collected for insulin measurement in EDTA tubes (Becton, Dickinson and Company, Franklin Lakes, NJ) and centrifuged to collect plasma (2000 g for 10 min at 4 °C), which was stored at −80 °C until analysis at 10, 30, 60, and 120 min after dose. Insulin levels were measured using an Ultrasensitive Mouse Insulin ELISA (ALPCO, Salem, NH), according to manufacturer’s instructions. For insulin tolerance tests (ITTs), animals were fasted for 8 h and blood glucose was measured before (0 min) and at 30, 60, 90, and 120 min following IP injection of 0.75 IU/kg of insulin (Humulin R, Eli Lilly, Indianapolis, IN). […]"}, "[2]": {"biological_target": "T1, HA-tagged CRHR2a (Homo sapiens, UniProt Q13324)", "T1 construct": "expressed in transfected cells; host or cells: HEK293 cells, transient transfection with pcDNA3.1(+) plasmid using Lipofectamine 3000", "T1 sequence (Q13324 1-411)": "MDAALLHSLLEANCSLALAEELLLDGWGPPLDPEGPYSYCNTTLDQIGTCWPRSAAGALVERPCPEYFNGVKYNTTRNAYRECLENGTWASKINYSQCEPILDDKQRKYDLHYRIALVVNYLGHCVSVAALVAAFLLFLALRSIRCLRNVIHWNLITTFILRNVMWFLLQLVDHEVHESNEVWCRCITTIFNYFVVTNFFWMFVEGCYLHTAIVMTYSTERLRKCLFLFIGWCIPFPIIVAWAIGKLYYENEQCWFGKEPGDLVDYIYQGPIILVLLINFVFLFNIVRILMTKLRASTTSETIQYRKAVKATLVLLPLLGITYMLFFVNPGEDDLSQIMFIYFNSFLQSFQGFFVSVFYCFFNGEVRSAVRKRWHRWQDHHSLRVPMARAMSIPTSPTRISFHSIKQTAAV", "assay": "CRHR2 surface expression / internalization, confocal imaging of HEK293 cells with HA-tagged CRHR2a", "type": "cell-based", "conditions": "100 nM UCN2, HEK cells with HA-tagged CRHR2a; n = 4", "experimental": "β-Arrestin recruitment can sometimes cause the internalization of the receptor to which it is recruited. To assess whether CRHR2 is internalized following UCN2 treatment, we quantified CRHR2 receptor surface expression using confocal imaging of HEK cells transiently transfected with a plasmid expressing a […] CRHR2a construct (Fig. S3). Cells were treated with saline or 100 nM (−7.0 log[M]) UCN2 and surface expression was determined by fluorescent anti-HA antibody-binding, with and without permeabilizing the cell.\nHEK293 cells were plated at a density of 10,000 cells per well into tissue culture-treated clear bottomed, optical microscopy quality, 96 well plates (Perkin Elmer, PhenoPlate 96-well) and grown for 1 day to ~40–60% confluency. Twenty-four hours after plating, cells were transfected with 50 ng of pcDNA3.1(+) plasmid encoding a N-terminally tagged CRHR2α construct using Lipofectamine 3000 (Thermofisher) following manufacturing protocols. Twenty-four hours following transfection, agonists were then added for 30 min and cells were incubated at 37 °C. Prior to imaging, cells were washed once with PBS and fixed with ice-cold 4% paraformaldehyde in PBS for 15 min. After washing 3 times with PBS, cells were kept in the Alexa Fluor 647 anti-HA (1:2000 dilution, BioLegend cat# 682404) diluted in 5% normal goat serum in PBS. […]"}, "[3]": {"system": "male mice", "assay": "Insulin tolerance test (ITT), blood glucose", "type": "in vivo, mouse", "set-up": "dose or concentration left out as unconfirmed", "conditions": "0.05, 0.2", "experimental": "as §1"}, "[4]": {"system": "heart, white adipose tissue", "assay": "In vivo glucose uptake, fluoro-deoxyglucose (FDG), heart and subcutaneous white adipose tissue", "set-up": "species or system mouse", "conditions": "for Glucose Uptake Rate, subcutaneous white adipose tissue (FDG): individual animals (Fig. 2H), 1 mg/kg", "experimental": "Mice were fasted 5 h, dosed IP with 1 mg/kg UCN2 or vehicle. 20 min after dosing mice were injected with 2 mg/kg fluoro-deoxyglucose (FDG) +/− 0.75 IU insulin via tail vein. 15 min after the FDG dose animals were anesthetized and tissues and blood were collected and snap frozen. Plasma and tissues were analyzed for FDG, FDG-monophosphate, glucose, and glucose-monophosphate. The quantification of the analytes was performed by liquid chromatography tandem mass spectrometry (LC-MS/MS) using selected reaction monitoring (SRM) on an Applied Biosystems SCIEX (Framingham, MA, USA) 5500 QTrap mass spectrometer operated in negative ionization mode. Chromatography was achieved on a Shimadzu (Kyoto, Japan) HPLC system under reversed phase LC conditions with gradient elution. Calibration standards were prepared in analyte-free matrix, while quality control samples were prepared in pooled tissue homogenate by standard addition. Experimental tissue samples were mechanically homogenized in a methanol solution followed by evaporation under nitrogen and resuspension with injection solvent prior to analysis on the LC-MS/MS system."}, "[5]": {"system": "AKT1S1, IRS1, AKT phosphorylation", "assay": "Western blot of p-AKT1S1, p-IRS1, p-AKT in gastrocnemius muscle", "type": "in vivo, mouse", "experimental": "Animal tissues were snap-frozen in liquid nitrogen and stored at −80 °C. Frozen tissues were homogenized in ice-cold RIPA buffer (Sigma Aldrich, St. Louis, MO), and protein concentrations were determined using a BCA protein assay (Thermo Fisher Scientific, Waltham, MA). Protein extracts were separated on NuPAGE 4–20% Bis-Tris gels (Bio-Rad, Hercules, CA) and blotted onto PVDF membranes (Bio-Rad, Hercules, CA). Membranes were blocked for 1 h at room temperature in TBST (0.1%) containing 5% milk. Membranes were then incubated overnight at 4 °C with primary antibodies against pSer183-AKT1S1, total AKT1S1, pSer3-IRS1, total IRS1, pSer473-AKT, and total AKT (Cell Signaling, Danvers, MA #5936, #2610, #2385, #2382, #4060, and #4691, respectively) diluted 1:1000. Following three washing steps with TBST (0.1%), membranes were incubated with HRP-conjugated secondary antibodies for 1 h at room temperature. After thorough washing, proteins were visualized with SuperSignal West Dura Extended Duration Substrate (Thermo Fisher Scientific, Waltham, MA) on the Bio-Rad ChemiDoc MP. Immunoreactive bands were quantified using Image J Software (NIH)."}}, "note": "Values joined by “and” are separate entries in the source; they are usually repeats but may differ in a detail not shown here. Equal entries are not always repeated. Where no end group is shown, it is not given here.", "data": [{"substance": "IVLSLDVPIGLLQILLEQARARAAREQATTNARILARVGHC-NH2 (C-terminus assumed) [UCN2, Urocortin 2]", "values": [{"measurement": "glucose tolerance after acute UCN2 in UCN2.AAV animals", "setting": "[1]; UCN2.AAV animals injected acutely with UCN2", "result": "worsened glucose tolerance"}, {"measurement": "glucose tolerance in oGTT", "setting": "[1]; oGTT twenty minutes after 1 mg/kg IP UCN2", "result": "glucose intolerance"}, {"measurement": "CRHR2 internalization / surface receptor expression", "setting": "[2]", "result": "increase of CRHR2 internalization and decreased surface receptor expression"}, {"measurement": "effect of increasing doses in ITT", "setting": "[3]", "result": "decreasing rates of glucose uptake in response to insulin injection"}, {"measurement": "insulin-stimulated glucose uptake in heart, WAT and SKM in vivo", "setting": "[4]; 1 mg/kg IP UCN2, SKM by [3H]2DG", "result": "decreased insulin-stimulated glucose uptake"}, {"measurement": "Glucose Uptake Rate, subcutaneous white adipose tissue (FDG)", "setting": "[4]; UCN2 1 mg/kg IP +Insulin 0.75 IU", "result": "0.1568 ng/g tissue/min and 0.1229 ng/g tissue/min and 0.1122 ng/g tissue/min and 0.1603 ng/g tissue/min and 0.108 ng/g tissue/min and 0.2201 ng/g tissue/min and 0.1273 ng/g tissue/min and 0.0896 ng/g tissue/min"}, {"measurement": "Glucose Uptake Rate, subcutaneous white adipose tissue (FDG)", "setting": "[4]; UCN2 1 mg/kg IP +Veh (no insulin)", "result": "0.0619 ng/g tissue/min and 0.036 ng/g tissue/min and 0.07045 ng/g tissue/min and 0.06392 ng/g tissue/min and 0.06486 ng/g tissue/min and 0.04044 ng/g tissue/min and 0.02401 ng/g tissue/min and 0.1458 ng/g tissue/min"}, {"measurement": "Relative pAKT1s1/AKT1s1", "setting": "[5]; Fig 5F, UCN2 vs Saline, individual samples", "result": "0.4889 and 0.4355 and 0.6101 and 0.3366"}, {"measurement": "Relative pIRS1/IRS1", "setting": "[5]; Fig 5G, UCN2 vs Saline, individual samples", "result": "0.5347 and 0.4912 and 0.4136 and 0.3459"}, {"measurement": "Relative pAKT/AKT", "setting": "[5]; Fig 5H, UCN2 vs Saline, individual samples", "result": "0.5139 and 0.5838 and 0.5951 and 0.5852"}, {"measurement": "AKT1S1, IRS1 and AKT phosphorylation, acute treatment", "setting": "[5]; gastrocnemius, acute UCN2, Western blot", "result": "dephosphorylation"}]}]}
